Here are results for 3 molecules from patent publication US20180049995A1, “HIF-2-ALPHA INHIBITOR POLYMORPHS” (PELOTON THERAPEUTICS, INC., priority 2015, published 2018).

In brackets after ≈: the same amount, converted by molar mass. Where two headings read alike, the source gives them in different places. Some results are limits rather than exact numbers.

Holding throughout (assay type): physicochemical
The nature of data set [1]: Competitive slurries of Form A and Form B (XRPD). As for the experimental part: Slurry experiments were performed at ambient, 40° C. and 60° C. temperatures using 2-propanol, tert-butyl methyl ether, toluene and ethanol as solvents.
Saturated solutions of 2-propanol, tert-butylmethyl ether, toluene and ethanol were prepared at ambient temperature. ca. 25 mg of Form A and Form B were weighed into a vial to create 50 mg 50:50 wt/wt mixture of the two batches. The appropriate solvent was added to the mixture and the resulting slurry was stirred for 48 h at ambient temperature, before the solid was analyzed by XRPD.
Saturated solutions of 2-propanol, tert-butylmethyl ether, toluene and ethanol were prepared at 40° C. ca. 25 mg of Form A and Form B were weighed into a vial to create 50 mg 50:50 wt/wt mixture of the two batches. The appropriate solvent was added to the mixture and the resulting slurry was stirred for 48 h at 40° C., before the solid was analyzed by XRPD.
Saturated solutions of 2-propanol, toluene and ethanol were prepared at 60° C. ca. 25 mg of Form A and Form B were weighed into a vial to create 50 mg 50:50 wt/wt mixture of the two batches. The appropriate solvent was added to the mixture and the resulting slurry was stirred for 48 h at 60° C., before the solid was analyzed by XRPD.

Data set [2] in a line: 7-Day stability study (XRPD and HPLC after storage). As for the experimental part: The stability of Forms A and B were measured following storage for 7-days at ambient, 40° C./75% RH and 80° C. About 15 mg of Forms A and B were individually placed in each of 3 vials and stored uncapped for 7 days under the following conditions; ambient, 40° C./75% RH, 80° C. Following the 7 days, XRPD analysis was performed on each sample to determine its form and crystallinity and HPLC analysis was conducted to determine the sample purity.

The nature of data set [3]: Aqueous solubility (24 h mixing, filtrate by HPLC). Conditions: thermodynamic from solid. How it is done:
The aqueous solubility of several lots of Forms A and B were measured. […] The sample was filtered using a syringe filter and the filtrate was analyzed by HPLC to determine the solubility. The remaining solid was analysis by XRPD to determine its form and crystallinity. Solubility data for micronized materials was also collected. As noted in Table 3, slight variations in aqueous solubility were noted, particularly for the micronized samples.

Data set [4] can be described thus: Solubility screen for Form A in organic solvents. How it is done:
A solubility screen for Form A was conducted in 24 solvents. About 5 mg of Form A was placed in each of 24 vials and 5 volume aliquots of the appropriate solvent systems listed in Table 1 were added to the appropriate vial. Between each addition, the mixture was checked for dissolution by visual inspection, and if no dissolution was apparent, the mixture was heated to ca. 40° C. and checked again. This procedure was continued until dissolution was observed or until 100 volumes of solvent had been added.
Form A appeared to be highly soluble (above ˜100 mg/mL) in a number of solvents, […] diisopropyl ether, heptane and toluene. These solvents were identified as possible anti-solvents for the primary polymorph screen. Additional solvent/water mixtures suitable for freeze drying were tested.

On to `CS(=O)(=O)c1ccc(Oc2cc(F)cc(C#N)c2)c2c1[C@H](O)C(F)(F)C2` (mixture of isomers) [50:50 wt/wt mixture, (S)-3-((2,2-difluoro-1-hydroxy-7-(methylsulfonyl)-2,3-dihydro-1H-inden-4-yl)oxy)-5-fluorobenzonitrile], for which the “Form by XRPD after competitive slurry” value in data set [1] (2-Propanol, 40° C., 48 h) is on record as “Form B”; in data set [1] (2-Propanol, 60° C., 48 h, footnote: Primarily Form B), “Mixture^a”; in data set [1] (2-Propanol, Ambient, 48 h), “Form B”; in data set [1] (Ethanol, 40° C., 48 h) it was “Form B”; in data set [1] (Ethanol, 60° C., 48 h, footnote: primarily Form A with some Form B present) it was “Mixture^b”; in data set [1] (Ethanol, Ambient, 48 h), “Form B”. In addition, the “Form by XRPD after competitive slurry” value is “Form B^b” in data set [1] (Ethanol, Repeat 60° C., only Form B observed); “Form B” in data set [1] (TBME, 40° C., 48 h); “Form B” in data set [1] (TBME, Ambient, 48 h); “Form B” in data set [1] (Toluene, 40° C., 48 h); “Form B” in data set [1] (Toluene, 60° C., 48 h); “Form B” in data set [1] (Toluene, Ambient, 48 h).

`CS(=O)(=O)c1ccc(Oc2cc(F)cc(C#N)c2)c2c1[C@H](O)C(F)(F)C2` [Form A, (S)-3-((2,2-difluoro-1-hydroxy-7-(methylsulfonyl)-2,3-dihydro-1H-inden-4-yl)oxy)-5-fluorobenzonitrile]: in data set [2] (7 days at 80° C.), the Crystallinity after storage result was “appeared to lose crystallinity”. Moreover, the “Form change by XRPD after storage” value in data set [2] (7 days uncapped, ambient, 40° C./75% RH, 80° C.) is reported as “no signs of form change”. For the same molecule, the “Purity by HPLC after storage” value in data set [2] (7 days, over all three conditions (ambient, 40° C./75% RH, 80° C.)) turned out to be 99.0%. The solubility (as a rule, how much of the substance goes into solution per volume) at 24 h in data set [3] (fassif, Fasted State Simulated Small Intestinal Fluid, read-out: Aqueous Solubility FaSSIF) is 0.063 mg/mL (≈ 0.164 mM); in data set [3] (fessif, Fed State Simulated Small Intestinal Fluid, read-out: Aqueous Solubility FeSSIF), 0.086 mg/mL (≈ 0.224 mM); in data set [3] (pH 1.2, simulated gastric fluid, pH 1.2, read-out: Aqueous Solubility pH 1.2), 0.029 mg/mL (≈ 0.0756 mM); in data set [3] (pH 6.5, aqueous buffer, pH 6.5, read-out: Aqueous Solubility pH 6.5), 0.025 mg/mL (≈ 0.0652 mM); in data set [3] (pH 7.4, aqueous buffer, pH 7.4, read-out: Aqueous Solubility pH 7.4), 0.026 mg/mL (≈ 0.0678 mM). For the same molecule, the solubility is more than 200 mg/mL in data set [4] (40 °C, organic solvent or mixture, thermodynamic from solid, 1,4-Dioxane, solubility observed at 40° C., read-out: Solubility); more than 200 mg/mL in data set [4] (40 °C, organic solvent or mixture, thermodynamic from solid, Acetonitrile, solubility observed at 40° C., read-out: Solubility); more than 2 mg/mL in data set [4] (40 °C, organic solvent or mixture, thermodynamic from solid, Diisopropyl ether, solubility observed at 40° C., read-out: Solubility); 160 mg/mL (≈ 417 mM) in data set [4] (40 °C, organic solvent or mixture, thermodynamic from solid, Methyl isobutyl ketone, solubility observed at 40° C., read-out: Solubility); less than 2 mg/mL in data set [4] (aqueous with cosolvent or surfactant or cyclodextrin, thermodynamic from solid, Acetone: Water (60%), read-out: Solubility); less than 2 mg/mL in data set [4] (aqueous with cosolvent or surfactant or cyclodextrin, thermodynamic from solid, Ethanol: Water (50%), read-out: Solubility). Also, the solubility in data set [4] (aqueous with cosolvent or surfactant or cyclodextrin, thermodynamic from solid, Methanol: Water (50%), read-out: Solubility) is less than 2 mg/mL; in data set [4] (aqueous with cosolvent or surfactant or cyclodextrin, thermodynamic from solid, THF: Water (50%), read-out: Solubility) it was 100 mg/mL (≈ 261 mM); in data set [4] (organic solvent or mixture, thermodynamic from solid, 2-Propanol, read-out: Solubility), 9 mg/mL (≈ 23.5 mM); in data set [4] (organic solvent or mixture, thermodynamic from solid, Acetone: Water (5%), read-out: Solubility), more than 200 mg/mL; in data set [4] (organic solvent or mixture, thermodynamic from solid, Acetone: Water (20%), read-out: Solubility), more than 200 mg/mL; in data set [4] (organic solvent or mixture, thermodynamic from solid, Acetone, read-out: Solubility) it was more than 200 mg/mL. In addition, the solubility in data set [4] (organic solvent or mixture, thermodynamic from solid, Acetonitrile: Water (10%), read-out: Solubility) was more than 200 mg/mL; in data set [4] (organic solvent or mixture, thermodynamic from solid, Dichloromethane, read-out: Solubility) it was 80 mg/mL (≈ 209 mM); in data set [4] (organic solvent or mixture, thermodynamic from solid, Dimethylformamide, read-out: Solubility), more than 200 mg/mL; in data set [4] (organic solvent or mixture, thermodynamic from solid, Dimethylsulfoxide, read-out: Solubility), 160 mg/mL (≈ 417 mM); in data set [4] (organic solvent or mixture, thermodynamic from solid, Ethanol, read-out: Solubility), 60 mg/mL (≈ 157 mM); in data set [4] (organic solvent or mixture, thermodynamic from solid, Ethyl acetate, read-out: Solubility), 160 mg/mL (≈ 417 mM). Further, the solubility in data set [4] (organic solvent or mixture, thermodynamic from solid, Heptane, read-out: Solubility) was less than 2 mg/mL; in data set [4] (organic solvent or mixture, thermodynamic from solid, Isopropyl acetate, read-out: Solubility), 90 mg/mL (≈ 235 mM); in data set [4] (organic solvent or mixture, thermodynamic from solid, Methanol, read-out: Solubility), 90 mg/mL (≈ 235 mM); in data set [4] (organic solvent or mixture, thermodynamic from solid, Methyl acetate, read-out: Solubility), more than 200 mg/mL; in data set [4] (organic solvent or mixture, thermodynamic from solid, Methylethyl ketone, read-out: Solubility), more than 200 mg/mL; in data set [4] (organic solvent or mixture, thermodynamic from solid, N-Methyl-2-pyrrolidone, read-out: Solubility), 130 mg/mL (≈ 339 mM). Further, the solubility in data set [4] (organic solvent or mixture, thermodynamic from solid, Tetrahydrofuran, read-out: Solubility) is more than 200 mg/mL; in data set [4] (organic solvent or mixture, thermodynamic from solid, Toluene, read-out: Solubility) it was more than 2 mg/mL; in data set [4] (organic solvent or mixture, thermodynamic from solid, in a number of solvents, read-out: Solubility (highly soluble)) it was more than 100 mg/mL; in data set [4] (organic solvent or mixture, thermodynamic from solid, tert-Butylmethyl ether, read-out: Solubility) it was 35 mg/mL (≈ 91.3 mM); in data set [4] (water, thermodynamic from solid, Water, read-out: Solubility) it was less than 2 mg/mL. The Solubility in words result is “Sufficient solubility” in data set [4] (THF:Water (50%), separation into API-saturated THF layer and API-free aqueous layer observed); “insoluble” in data set [4] (water (hydrophobic behavior observed), diisopropyl ether, heptane and toluene).

Take `CS(=O)(=O)c1ccc(Oc2cc(F)cc(C#N)c2)c2c1[C@H](O)C(F)(F)C2` [Form B, (S)-3-((2,2-difluoro-1-hydroxy-7-(methylsulfonyl)-2,3-dihydro-1H-inden-4-yl)oxy)-5-fluorobenzonitrile]: the “Thermodynamic stability of the form (conclusion of competitive slurries)” value in data set [1] (all solvents, ambient, 40° C. and 60° C.) is “the most thermodynamically form”. Besides, the “Purity by HPLC after storage” value in data set [2] (7 days at 80° C., drop from 99.7%) worked out at 99.3%. Also, the Crystallinity after storage entry in data set [2] (7 days, over the three conditions (ambient, 40° C./75% RH, 80° C.)) is “maintained crystallinity”.
